In publication PMC9202104 (BMC Biology, 2022):
Read-outs that look alike come from different tables or passages of the source.

Assays:
[1] = tested on: ZIKV human strain PAN2016; assay: ZIKV challenge in adult Ifnar1−/− mice, tissue viral titers and immunofluorescence; type: in vivo; settings: 5 dpi
Protocol: Briefly, 7–8-week-old male mice were used, and two separate experiments were performed. […] These mice were i.p. infected with ZIKV (human strain R103451, 200 PFU/mouse) and observed daily for weight changes and survival until 21 dpi. […] Five days later, these mice were sacrificed, and their tissues, including the heart, testis, eye, kidney, and brain, were collected for detection of viral titers by plaque assay, or apoptosis by immunofluorescence staining. Mice losing 20% of initial weight with severe symptoms, including hind limb weakness and paralysis, or 25% of initial weight, were humanely euthanized with an overdose isoflurane in a Bell Jar, followed by cervical dislocation.
Plaque assay was used to detect viral titers in ZIKV-infected tissues. Briefly, tissues were homogenized with cold culture medium (DMEM + 2% FBS) and then centrifuged (2000 g at 4°C for 10 min). Supernatants were serially diluted to infect Vero E6 cells in 24-well plates. ZIKV titers in tissues were measured from ~40 mg of samples; thus, the detection limit was about 25 PFU/g of tissues.
(§1) Immunofluorescence staining was carried out to detect ZIKV and caspase-3 signals in ZIKV-infected mouse tissues. Briefly, tissues were fixed in 4% formaldehyde, embedded in paraffin, and sectioned. The tissue sections were deparaffinized, fixed, and permed using the FIX and PERM Cell Permeabilization Kit (Thermo Fisher Scientific, Waltham, MA, USA). After blocking with 5% BSA, the tissue slides were incubated at 37°C 2 h with ZIKV EDIII-specific human mAb (ZV-67, 1:100, Absolute Antibody, Boston, MA, USA), or rabbit anti-active caspase-3 antibody (1:100, Abcam). The slides were washed with PBS and incubated for 30 min with anti-human FITC antibody (1:100, for ZIKV), or anti-rabbit Alexa Fluor 647 antibody (1:100, for caspase-3). The slides were then counterstained for nuclei, using DAPI (300 nM, Thermo Fisher Scientific, Waltham, MA, USA) for 5 min, and mounted in VectaMount Permanent Mounting Medium (Vector Laboratories, CA, USA). The slides were analyzed using a confocal microscope (Zeiss LSM 880) and ZEN software, and fluorescent signals were quantified by ImageJ software.

[2] = Safety profile in pregnant Ifnar1−/− mice and pups; type: in vivo
Protocol: Briefly, groups of 5 pregnant mice (8–12-week-old, E12-14) were i.p. injected with ST087010 (20 or 40 mg/kg of body weight, 200 μl/mouse), or DMSO (negative control), daily for 4 continuous days.

[3] = tested on: ZIKV human strain R116265; assay: ZIKV vertical transmission in pregnant Ifnar1−/− mice; type: in vivo; settings: 5 dpi
Protocol: Briefly, groups of 5 pregnant mice (10–12-week-old, E12-14) were i.p. injected with ST087010 (20 mg/kg of body weight, 200 μl/mouse), or DMSO (negative control), 12 h before and 6, 24, and 48 h after i.p. infection with ZIKV (human strain R116265, 10^3 PFU). Five days post-infection, mice were sacrificed; viral titers were assessed using plaque assay in the sera, placenta, fetal brain, and amniotic fluid, and uteri and fetuses were assessed for morphological and size changes. The placenta was also assessed for apoptosis and viral replication by immunofluorescence staining, as described below.
as §1

[4] = tested on: ZIKV human strain PAN2016 (2016/Panama); assay: Plaque assay, inhibition of ZIKV infection (strain PAN2016)
Protocol: (§2) After removal of the unbound compounds by centrifugation (after addition of 3% PEG-6000), ZIKV was incubated with Vero E6 cells in 24-well plates at 37°C for 1 h. The cells were then washed with PBS, overlaid with DMEM containing 1% carboxymethyl cellulose and 2% FBS, and cultured at 37°C for 4–5 days, followed by being stained with 0.5% crystal violet. […] Plaques in each well were calculated, and IC50 of compounds for each compound was calculated using the CalcuSyn computer program.

ZIKV NS2B-NS3 protein = target: T1, ZIKV NS2B-NS3 protein (Zika virus, UniProt Q32ZE1); assay: SPR binding to ZIKV NS2B-NS3
T1 construct: fused with the genes encoding NS3 protein (residues 1-185) through a linker (Gly4-Thr-Gly4); His6 (C); made in house; host or cells: E. coli
Protocol: (GE Healthcare, Port Washington, NY, USA). Briefly, ZIKV EDIII protein or NS2B-NS3 protein was immobilized on a sensor chip (CM5) using the Amine Coupling Kit (GE Healthcare). Serially diluted ST087010 was added as analytes, and HBS-EP with 10% DMSO (10 mM HEPES, 150 mM NaCl, 3 mM EDTA, 0.05% Tween-20, 10% DMSO, pH 7.4) was used as a running buffer. Biacore BK evaluation software (version 1.1) was applied to analyze the data, and the curve was fitted with a 1:1 binding model.

[5] = tested on: ZIKV rhesus macaque strain MR 766; assay: Plaque assay, inhibition of ZIKV infection (strain MR 766); type: cell-based; settings: Zika virus, Vero C1008; plaque assay, Vero E6 cells, rhesus strain; read-out: IC50 MR 766
Protocol: as §2

DENV-1-V1792 = assay: Plaque assay, inhibition of DENV-1 infection in LLC-MK2 cells; type: cell-based; settings: Dengue virus, DENV1
ZIKV human strain FLR = assay: Plaque assay, inhibition of ZIKV infection (strain FLR); type: cell-based; settings: Zika virus, Vero C1008; plaque assay, Vero E6 cells, human strain; read-out: IC50 FLR
Protocol: as §2

[6] = target: T2, binding of ZIKV EDIII to EDIII-specific neutralizing mAbs (Zika virus, UniProt A0A024B7W1); assay: ELISA competition assay, EDIII-mAb binding; settings: for IC50: mAb 0.5 μg/mL
T2 construct: EDIII (residues 298-409 in E protein containing a C-terminal human Fc tag); human Fc (C)
Protocol: ELISA was also used to determine the ability of ST087010 to inhibit the binding between ZIKV EDIII and EDIII-specific human mAbs (SMZAb5, ZKA64-LALA, ZV-67, or Z004) or EDI/II-specific human mAb (ZKA78) control. […] The plates were then sequentially incubated with HRP-conjugated anti-human IgG-Fab antibody and TMB substrate, followed by detection of A450 values. Percent inhibition (% inhibition) of compounds was calculated using the formula ((1-(EDIII-mAb-compound)/(EDIII-mAb))×100), and IC50 was obtained using the CalcuSyn computer program.

[7] = immunofluorescence, compared to DMSO

T2 sequence (A0A024B7W1 588-699): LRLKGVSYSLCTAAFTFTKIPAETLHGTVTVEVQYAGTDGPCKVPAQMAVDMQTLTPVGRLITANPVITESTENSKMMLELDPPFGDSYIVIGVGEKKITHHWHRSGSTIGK
T1 sequence (Q32ZE1 1499-1683, added parts left off, change not shown): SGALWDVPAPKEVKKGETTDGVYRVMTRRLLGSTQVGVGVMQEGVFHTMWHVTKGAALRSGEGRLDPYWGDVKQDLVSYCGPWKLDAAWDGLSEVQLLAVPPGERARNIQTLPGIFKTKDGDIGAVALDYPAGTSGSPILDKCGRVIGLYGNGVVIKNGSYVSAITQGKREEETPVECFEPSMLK

Cc1cc2c(C(C)C)c(O)c(O)c(/C=N/n3c(=O)[nH][nH]c3=O)c2c(O)c1-c1c(C)cc2c(C(C)C)c(O)c(O)c(/C=N/n3c(=O)[nH][nH]c3=O)c2c1O [ST087010]
Viral titers in the heart, testis, eye, kidney, and brain ([1]; 20 mg/kg i.p., ZIKV PAN2016 200 PFU, compared to gossypol or DMSO-treated mice): significantly reduced | ZIKV+ signals in eye and testis tissues ([1]; immunofluorescence): undetectable | Caspase-3 staining in eye and testis tissues [1, 7]: undetectable, or diminished | Histopathology of liver, spleen, kidney, and brain of mothers and pups ([2]; 20 or 40 mg/kg, compared to DMSO): did not present pathological changes | Inflammation or cell infiltration in tissues ([2]; low and high doses (20 and 40 mg/kg)): no inflammation or cell infiltration | Serum ALT and creatinine levels vs DMSO ([2]; pregnant mice, 20 mg/kg, 1 day after injection): no significant difference | Serum ALT and creatinine levels ([2]; pregnant mice, 20 or 40 mg/kg, before injection and 4 h, 3 or 5 days after last injection): no significant differences | Staining of ZIKV+ or caspase-3 signals in placental tissues [3, 7]: undetectable, or diminished | Viral titers in sera, placenta, fetal brain, and amniotic fluid ([3]; pregnant mice, 20 mg/kg i.p., ZIKV R116265 10^3 PFU, compared to DMSO): significantly reduced | Condition of fetuses ([3]; pregnant mice, 20 mg/kg i.p., ZIKV R116265): all in good condition | SI (CC50/IC50) ([4]; CC50 Vero E6 / IC50 ZIKV PAN2016): 15.63 | IC50 ([4]; Zika virus, Vero C1008, in Homo sapiens, read-out: IC50 against infection of ZIKV PAN2016, plaque assay, Vero E6 cells): 3.2 µM | IC50 ([4]; read-out: IC50 against infection of ZIKV PAN2016, plaque assay, Vero E6 cells): 3.17 ± 0.18 µM | Kd (ZIKV NS2B-NS3 protein): 19.9 µM | IC50 [5]: 3.5 µM | IC50 (DENV-1-V1792): 3.01 ± 0.11 µM | IC50 (ZIKV human strain FLR): 2.8 µM | Inhibition with EDI/II-specific mAb control ZKA78 ([6]; ELISA competition, ZKA78 did not bind to EDIII): no inhibition | IC50 ([6]; IC50 blocking EDIII binding to mAb SMZAb5, ELISA competition): 5.72 µM | IC50 ([6]; IC50 blocking EDIII binding to mAb Z004, ELISA competition): 44.5 µM | IC50 ([6]; IC50 blocking EDIII binding to mAb ZKA64-LALA, ELISA competition): 4.17 µM | IC50 ([6]; IC50 blocking EDIII binding to mAb ZV-67, ELISA competition): 6.7 µM
